Values quoted from earlier work in patent publication US20080293821A1, “Cooling compositions” (priority 2007, published 2008).

Target: T1, recombinant cold-menthol receptor TRPM8 (mTRPM8) (Mus musculus, UniProt Q8R4D5)
T1 construct: host or cells: HEK293 cells (recombinant expression)
T1 sequence (Q8R4D5 whole entry): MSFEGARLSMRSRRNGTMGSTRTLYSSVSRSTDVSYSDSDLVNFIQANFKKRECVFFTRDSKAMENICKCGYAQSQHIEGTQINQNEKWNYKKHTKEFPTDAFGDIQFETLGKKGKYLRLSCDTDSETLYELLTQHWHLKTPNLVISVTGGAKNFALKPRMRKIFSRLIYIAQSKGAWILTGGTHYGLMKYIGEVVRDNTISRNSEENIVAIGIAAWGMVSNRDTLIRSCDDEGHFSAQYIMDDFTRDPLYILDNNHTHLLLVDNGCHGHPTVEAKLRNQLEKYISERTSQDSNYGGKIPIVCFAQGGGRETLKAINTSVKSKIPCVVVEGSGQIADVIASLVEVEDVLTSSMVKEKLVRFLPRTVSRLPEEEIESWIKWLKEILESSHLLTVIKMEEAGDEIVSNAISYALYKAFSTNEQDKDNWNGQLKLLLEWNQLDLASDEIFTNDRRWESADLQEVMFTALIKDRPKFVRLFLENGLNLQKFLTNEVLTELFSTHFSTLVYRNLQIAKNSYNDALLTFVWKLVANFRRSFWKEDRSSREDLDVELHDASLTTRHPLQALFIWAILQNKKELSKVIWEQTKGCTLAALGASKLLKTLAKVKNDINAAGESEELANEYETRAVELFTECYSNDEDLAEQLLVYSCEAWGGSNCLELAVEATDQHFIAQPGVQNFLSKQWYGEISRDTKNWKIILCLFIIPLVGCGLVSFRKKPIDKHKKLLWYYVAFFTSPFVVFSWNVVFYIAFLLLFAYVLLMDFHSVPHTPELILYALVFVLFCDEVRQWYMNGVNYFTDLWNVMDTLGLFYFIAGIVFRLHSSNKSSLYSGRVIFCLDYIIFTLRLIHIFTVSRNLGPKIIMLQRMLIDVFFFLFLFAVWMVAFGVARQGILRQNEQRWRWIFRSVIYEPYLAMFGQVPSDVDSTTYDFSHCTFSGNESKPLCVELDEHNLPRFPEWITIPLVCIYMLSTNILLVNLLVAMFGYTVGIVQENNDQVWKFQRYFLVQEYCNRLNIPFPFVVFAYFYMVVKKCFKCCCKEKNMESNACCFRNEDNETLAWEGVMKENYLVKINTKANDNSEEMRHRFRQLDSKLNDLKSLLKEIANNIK
Settings: mTRPM8 expressed in HEK293 cells, FLIPR; British Journal of Pharmacology 141, 737-745 (2004)
In the case of `C=CC(C)(O)CCC=C(C)C` (stereo not shown) [linalool], the “agonist activity on TRPM8” value is listed as “agonists”.
For `C[C@@H]1CC[C@@H](C(C)(C)O)[C@H](O)C1` [PMD38], the “agonist activity on TRPM8” value is listed as “agonists”.
For `CC1CCC(C(C)C)C(OC(=O)C(C)O)C1` (stereo not shown) [Frescolat ML, menthyl lactate], the “agonist activity on TRPM8” value is given as “agonists”.
For `CC(C)=CCC/C(C)=C/CO` [geraniol], the “agonist activity on TRPM8” value is given as “agonists”.
In the case of `CC1CCC(C(C)C)C2(C1)OCC(CO)O2` (stereo not shown) [Frescolat MGA, 6-isopropyl-9-methyl-1,4-dioxaspiro-(4,5)-decane-2-methanol], the “agonist activity on TRPM8” value is listed as “agonists”.
In the case of `CNC(=O)C(C)(C(C)C)C(C)C` [WS-23, 2-Isopropyl-N,2,3-trimethylbutyramide], the “agonist activity on TRPM8” value is listed as “agonists”.
For `CC(CC=O)CCCC(C)(C)O` (stereo not shown) [hydroxycitronellal], the “agonist activity on TRPM8” value is given as “agonists”.
For `CCNC(=O)C1CC(C)CCC1C(C)C` (stereo not shown) [WS-3, N-Ethyl-p-menthane-3-carboxamide], the “agonist activity on TRPM8” value is given as “agonists”.
In the case of `C=C(C)[C@@H]1CC[C@@H](C)C[C@H]1O` [Coolact P], the “agonist activity on TRPM8” value is listed as “agonists”.
In the case of `CC1CCC(C(C)C)C(OCC(O)CO)C1` (stereo not shown) [Cooling Agent 10], the “agonist activity on TRPM8” value is listed as “agonists”.
